Laboratory results: article PMC12377202, “Design, synthesis, and cytotoxic evaluation of quinazoline-based derivatives as VEGER-2 inhibitors: comparative study against EGFR kinase activity, induction of apoptosis, and molecular docking study” (RSC Advances, 2025)
Like-named read-outs stand apart in the source and are kept apart here. One block for each compound: values may come before it.

Legend:
MCF-7 = experiment: MTT anti-proliferative assay, MCF-7; type: cell-based, human; details: for IC50: MTT, MCF-7, read-out: Cytotoxicity against cancer cells IC50 MCF-7
HepG-2 = experiment: MTT anti-proliferative assay, HepG-2; type: cell-based, human
K-562 = experiment: MTT anti-proliferative assay, K-562; type: cell-based, human; details: for IC50: MTT, K-562, read-out: Cytotoxicity against cancer cells IC50 K-562
[1] = MTT cytotoxicity against normal cells; type: cell-based, human; details: human, HEK-293 cells (normal human embryonic kidney)
HEK-293 = experiment: MTT cytotoxicity against normal cells; type: cell-based, human
caspase-3 = experiment: Caspase-3 expression level in HepG-2 cells; type: cell-based, human; details: for Caspase-3 ± SE: HepG-2, at IC50 concentrations, control 0.460
Method: (§1) All synthesized compounds were tested at their cytotoxic concentrations in HepG-2 cells for analysis of gene expression levels of apoptotic markers caspase-3, caspase-9, TNF-α, and IL-6 proteins, and only two active compounds were tested for BAX and Bcl-2 proteins.
(§2) through Flow cytometric analysis.
(§3) Pellets were collected again and incubated with
(§4) Total RNA from vehicle-treated
(§5) (Thermo Scientific, USA).
(§6) All experiments were performed in […]

caspase-9 = experiment: Caspase-9 expression level in HepG-2 cells; type: cell-based, human; details: for Caspase-9 ± SE: HepG-2, at IC50 concentrations, control 11.01
Method: as §1, §2, §3, §4, §5, §6

TNF-alpha = TNF-alpha level in HepG-2 cells; type: cell-based, human; details: for TNF-alpha ±SE: control 43.48
Method: as §1, §2, §3, §4, §5, §6

IL-6R = IL-6R level in HepG-2 cells; type: cell-based, human
Method: as §1, §2, §3, §4, §5, §6

EGFR = EGFR (Homo sapiens, UniProt P00533); experiment: EGFR kinase inhibition assay (ELISA kit)
VEGFR-2 = VEGFR-2 (Homo sapiens, UniProt P35968); experiment: In vitro VEGFR-2 inhibitory assay (ELISA kit); details: VEGFR-2 kinase
VEGFR-2, sequence (P35968 20-1356): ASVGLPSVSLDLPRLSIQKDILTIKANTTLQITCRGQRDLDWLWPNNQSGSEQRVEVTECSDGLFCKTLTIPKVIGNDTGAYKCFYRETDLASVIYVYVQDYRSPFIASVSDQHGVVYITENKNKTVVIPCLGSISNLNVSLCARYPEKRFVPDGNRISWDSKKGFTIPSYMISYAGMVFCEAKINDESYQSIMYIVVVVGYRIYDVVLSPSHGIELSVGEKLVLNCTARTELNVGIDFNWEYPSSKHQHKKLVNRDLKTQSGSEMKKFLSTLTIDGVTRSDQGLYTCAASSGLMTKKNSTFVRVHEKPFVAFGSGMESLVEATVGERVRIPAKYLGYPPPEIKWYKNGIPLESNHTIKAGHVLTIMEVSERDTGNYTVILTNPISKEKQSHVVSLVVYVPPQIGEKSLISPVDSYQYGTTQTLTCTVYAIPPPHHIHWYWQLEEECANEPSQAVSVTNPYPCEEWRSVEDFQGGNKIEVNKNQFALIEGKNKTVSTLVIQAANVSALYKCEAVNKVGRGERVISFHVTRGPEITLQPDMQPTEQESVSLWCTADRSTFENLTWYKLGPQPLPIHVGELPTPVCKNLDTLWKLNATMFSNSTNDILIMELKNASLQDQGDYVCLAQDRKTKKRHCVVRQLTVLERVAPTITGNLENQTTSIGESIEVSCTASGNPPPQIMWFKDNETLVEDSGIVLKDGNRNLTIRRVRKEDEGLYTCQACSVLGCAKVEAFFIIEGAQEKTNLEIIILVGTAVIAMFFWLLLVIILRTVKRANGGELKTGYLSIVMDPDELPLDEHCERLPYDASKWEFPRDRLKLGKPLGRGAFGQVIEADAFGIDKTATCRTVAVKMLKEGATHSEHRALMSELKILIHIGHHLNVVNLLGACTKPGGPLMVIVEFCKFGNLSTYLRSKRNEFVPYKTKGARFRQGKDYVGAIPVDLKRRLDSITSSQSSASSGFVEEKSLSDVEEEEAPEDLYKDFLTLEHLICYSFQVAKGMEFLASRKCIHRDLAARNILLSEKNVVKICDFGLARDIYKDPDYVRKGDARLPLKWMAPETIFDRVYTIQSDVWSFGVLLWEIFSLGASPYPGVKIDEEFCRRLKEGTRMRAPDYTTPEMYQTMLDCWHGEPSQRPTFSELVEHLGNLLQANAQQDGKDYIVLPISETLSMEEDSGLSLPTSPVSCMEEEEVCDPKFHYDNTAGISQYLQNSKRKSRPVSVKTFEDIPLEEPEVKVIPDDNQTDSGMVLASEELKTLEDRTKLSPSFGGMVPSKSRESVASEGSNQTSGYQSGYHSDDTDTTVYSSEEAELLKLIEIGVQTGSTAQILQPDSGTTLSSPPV

Compound: CNC(=O)c1cc(Oc2ccc(NC(=O)Nc3ccc(Cl)c(C(F)(F)F)c3)cc2)ccn1 [Sorafenib, sorafenib, reference compound]
IC50 (MCF-7; Homo sapiens, MCF7): 128 ± 3.1 nM | viability at 78 µM (MCF-7; Homo sapiens, MCF7, 0.078 umol/ml): 71.5% | cytotoxicity at 78 µM (MCF-7; Homo sapiens, MCF7, 0.078 umol/ml, read-out: Toxicity %): 28.5% | viability (MCF-7; Homo sapiens, MCF7, 0.313 umol/ml): 25.7% | cytotoxicity at 0.313 µM (MCF-7; Homo sapiens, MCF7, 0.313 umol/ml, read-out: Toxicity %): 74.3% | viability (MCF-7; Homo sapiens, MCF7, 0.625 umol/ml): 16.1% | cytotoxicity at 2500 µM (MCF-7; Homo sapiens, MCF7, 2.5 umol/ml, read-out: Toxicity %): 89.1% | cytotoxicity at 10000 µM (MCF-7; Homo sapiens, MCF7, 10 umol/ml, read-out: Toxicity %): 91.8% | viability at 78 µM (HepG-2; Homo sapiens, HepG2, 0.078 umol/ml): 51.7% | cytotoxicity at 0.078 µM (HepG-2; Homo sapiens, HepG2, 0.078 umol/ml, read-out: Toxicity %): 48.3% | viability at 0.313 µM (HepG-2; Homo sapiens, HepG2, 0.313 umol/ml): 16.5% | viability at 0.625 µM (HepG-2; Homo sapiens, HepG2, 0.625 umol/ml): 11.1% | cytotoxicity at 2500 µM (HepG-2; Homo sapiens, HepG2, 2.5 umol/ml, read-out: Toxicity %): 92.1% | cytotoxicity at 10000 µM (HepG-2; Homo sapiens, HepG2, 10 umol/ml, read-out: Toxicity %): 93.1% | viability at 78 µM (K-562; Homo sapiens, K562, K-562, 0.078 umol/ml): 38.9% | cytotoxicity at 78 µM (K-562; Homo sapiens, K562, K-562, 0.078 umol/ml, read-out: Toxicity %): 61.1% | viability at 0.313 µM (K-562; Homo sapiens, K562, K-562, 0.313 umol/ml): 12.3% | viability at 0.625 µM (K-562; Homo sapiens, K562, K-562, 0.625 umol/ml): 9.18% | cytotoxicity at 2500 µM (K-562; Homo sapiens, K562, K-562, 2.5 umol/ml, read-out: Toxicity %): 92.1% | cytotoxicity at 10000 µM (K-562; Homo sapiens, K562, K-562, 10 umol/ml, read-out: Toxicity %): 92.9% | IC50 (K-562; Homo sapiens, K562): 60.6 ± 2.6 nM | viability at 3 days, 0.078 umol/ml ([1]; HEK-293, 0.078 umol/ml): 69.4% | viability at 3 days, 0.156 umol/ml ([1]; HEK-293, 0.156 umol/ml): 40.8% | viability at 3 days, 0.313 umol/ml ([1]; HEK-293, 0.313 umol/ml): 30.9% | viability at 3 days, 0.625 umol/ml ([1]; HEK-293, 0.625 umol/ml): 17.6% | viability at 3 days, 1.25 umol/ml ([1]; HEK-293, 1.25 umol/ml): 13.1% | viability at 3 days, 2.5 umol/ml ([1]; HEK-293, 2.5 umol/ml): 10.3% | viability at 3 days, 10 umol/ml ([1]; HEK-293, 10 umol/ml): 6.3% | viability at 3 days, 50 umol/ml ([1]; HEK-293, 50 umol/ml): 8.64% | Toxicity % (HEK-293; HEK-293, 0.078 umol/ml): 30.65% | Toxicity % (HEK-293; HEK-293, 0.156 umol/ml): 59.15% | Toxicity % (HEK-293; HEK-293, 0.313 umol/ml): 69.11% | Toxicity % (HEK-293; HEK-293, 0.625 umol/ml): 82.43% | Toxicity % (HEK-293; HEK-293, 1.25 umol/ml): 86.92% | Toxicity % (HEK-293; HEK-293, 2.5 umol/ml): 89.65% | Toxicity % (HEK-293; HEK-293, 10 umol/ml): 93.7% | Toxicity % (HEK-293; HEK-293, 50 umol/ml): 91.36% | IC50 (HEK-293; Homo sapiens, HEK293, raw data, HEK-293): 131 µM

Activity % (EGFR; HepG2): 18.428% | Inhibition % (EGFR; HepG2): 81.572% | Activity % (EGFR; K-562): 16.638% | Inhibition % (EGFR; K-562): 83.362% | Activity % (EGFR; MCF7): 30.226% | Inhibition % (EGFR; MCF7): 69.774% | Activity % (VEGFR-2; HepG2): 19.818% | Inhibition % (VEGFR-2; HepG2): 80.182% | Activity % (VEGFR-2; K-562): 41.248% | Inhibition % (VEGFR-2; K-562): 58.752% | Activity % (VEGFR-2; MCF7): 52.958% | Inhibition % (VEGFR-2; MCF7): 47.042%
Compound: N-(2,6-Dichlorophenyl)-2-(7-nitro-4-oxoquinazolin-3(4H)-yl)acetamide [9d]
Toxicity % (MCF-7; MCF-7, 0.195 umol): 49.43% | Viability % (MCF-7; MCF-7, 0.195 umol): 50.57% | Toxicity % (MCF-7; MCF-7, 0.391 umol): 61.52% | Viability % (MCF-7; MCF-7, 0.391 umol): 38.48% | Toxicity % (MCF-7; MCF-7, 0.781 umol): 74.05% | Viability % (MCF-7; MCF-7, 0.781 umol): 25.95% | Toxicity % (MCF-7; MCF-7, 1.563 umol): 65.74% | Toxicity % (MCF-7; MCF-7, 3.125 umol): 91.03% | Viability % (MCF-7; MCF-7, 3.125 umol): 8.971% | Toxicity % (MCF-7; MCF-7, 6.25 umol): 92.04% | Viability % (MCF-7; MCF-7, 6.25 umol): 7.96% | Toxicity % (MCF-7; MCF-7, 12.5 umol): 93.58% | Viability % (MCF-7; MCF-7, 12.5 umol): 6.42% | Toxicity % (MCF-7; MCF-7, 25 umol): 92.88% | Viability % (MCF-7; MCF-7, 25 umol): 7.124% | IC50 (MCF-7): 204 ± 2.6 nM | Toxicity % (HepG-2; HepG-2, 0.195 ug/ml): 39.23% | Viability % (HepG-2; HepG-2, 0.195 ug/ml): 60.77% | Toxicity % (HepG-2; HepG-2, 0.391 ug/ml): 55.68% | Viability % (HepG-2; HepG-2, 0.391 ug/ml): 44.32% | Toxicity % (HepG-2; HepG-2, 0.781 ug/ml): 70.62% | Viability % (HepG-2; HepG-2, 0.781 ug/ml): 29.38% | Toxicity % (HepG-2; HepG-2, 1.563 ug/ml): 85.02% | Viability % (HepG-2; HepG-2, 1.563 ug/ml): 14.98% | Toxicity % (HepG-2; HepG-2, 3.125 ug/ml): 89.27% | Viability % (HepG-2; HepG-2, 3.125 ug/ml): 10.73% | Toxicity % (HepG-2; HepG-2, 6.25 ug/ml): 91.87% | Viability % (HepG-2; HepG-2, 6.25 ug/ml): 8.132% | Toxicity % (HepG-2; HepG-2, 12.5 ug/ml): 93.19% | Viability % (HepG-2; HepG-2, 12.5 ug/ml): 6.813% | Toxicity % (HepG-2; HepG-2, 25 ug/ml): 93.7% | Viability % (HepG-2; HepG-2, 25 ug/ml): 6.3% | IC50 (HepG-2; MTT, HepG-2, read-out: Cytotoxicity against cancer cells IC50 HepG-2): 322.7 ± 2.9 nM | Toxicity % (K-562; K-562, 0.195 umol): 0.4516% | Viability % (K-562; K-562, 0.195 umol): 99.55% | Toxicity % (K-562; K-562, 0.391 umol): 4.146% | Viability % (K-562; K-562, 0.391 umol): 95.85% | Toxicity % (K-562; K-562, 0.781 umol): 28.41% | Viability % (K-562; K-562, 0.781 umol): 71.59% | Toxicity % (K-562; K-562, 1.563 umol): 39.82% | Viability % (K-562; K-562, 1.563 umol): 60.18% | Toxicity % (K-562; K-562, 3.125 umol): 62.19% | Viability % (K-562; K-562, 3.125 umol): 37.81% | Toxicity % (K-562; K-562, 6.25 umol): 87.81% | Viability % (K-562; K-562, 6.25 umol): 12.19% | Toxicity % (K-562; K-562, 12.5 umol): 90.52% | Viability % (K-562; K-562, 12.5 umol): 9.483% | Toxicity % (K-562; K-562, 25 umol): 92.57% | Viability % (K-562; K-562, 25 umol): 7.43% | IC50 (K-562): 2274 ± 3.5 nM | Caspase-3 ± SE (caspase-3): 0.68 ± 0.013 ng/mL | Caspase-3 ± SE (caspase-3; listed as N3): 0.68 ng/mL | caspase-3 expression level, fold increase (caspase-3; HepG-2, vs control cells): 1.5 fold | Caspase-9 ± SE (caspase-9): 43.52 ± 3.69 ng/L | Caspase-9 ± SE (caspase-9; listed as N3): 43.52 ng/L | caspase-9 expression level, fold increase (caspase-9; HepG-2, vs control cells): 3.95 fold | TNF-alpha ±SE (TNF-alpha; HepG-2, at IC50 concentrations): 10.2 ± 1.53 ng/L | TNF-α expression level (TNF-alpha; HepG-2, control 43.48%): 10.2 ng/L | TNF-alpha ±SE (TNF-alpha; raw data, HepG2): 16.01 ng/L | IL-6R ± SE (IL-6R; HepG-2, at IC50 concentrations, control 44.10): 16.64 ± 0.83 ng/L | IL-6R protein level (IL-6R; HepG-2, control 44.10%): 16.64 ng/L | IL-6 ±SE (IL-6R; raw data, HepG2, control 44.10): 10.13 ng/L
